Experimental data taken from patent publication US20120004182A1, “PHARMACEUTICAL COMPOSITIONS AND METHODS FOR INDUCTION AND ENHANCEMENT OF APOPTOSIS IN TUMOR CELLS” (priority 2010, published 2012).

System: human breast tumors
Assay: In vivo studies in nude mice bearing s.c. tumors
Settings: intraperitoneal, every 2 days, 10 days of treatment, 25 nmol antagonist, 1 μmol 4OH-Tamoxifen per mouse
Description: Female athymic (nude) mice (CD1 nu/nu), 6 to 8 weeks old on arrival, were obtained from Charles River (Sulzfeld, Germany). The mice were housed in sterile cages in a temperature-controlled room with 12-hour light/12-hour dark schedule and were fed autoclaved chow and water ad libitum. All experiments were done according to the German ethical guidelines and the German laws for protection of animals.
Tumors were initiated by subcutaneous injection of 1×10^7 cancer cells into the right flank. After 2 weeks all animals had developed solid tumors of about 200 mm^3 and treatment was initiated. The in vivo experiments were done as follows: 25 nmol of GnRH-II antagonist of Seq. ID. No. 23 without or with 1 μmol of 40H-Tamoxifen per mouse (5 mice per group and control group) were injected intraperitoneally. Treatment was repeated every 2 days. Tumor volumes were measured. The mice were killed after 10 days of treatment. […]
The proliferation and induction of apoptosis were analyzed after treatment without or with a GnRH-II antagonist without or with co-treatment with 4OH-Tamoxifen. Nude mice bearing human breast tumors s.c. were treated without or with a GnRH-II antagonist alone or in combination with 4OH-Tamoxifen and the tumor volumes were measured.

| Compound | tumor volume |
| --- | --- |
| CC/C(=C(\c1ccccc1)c1ccc(OCCN(C)C)cc1)c1ccccc1 [Tamoxifen] | increases |
| Ac-D-2Nal-D-4 Cpa-D-3 Pal-Ser-His-D-3 Pal-Trp-Leu-Pro-D-Ala-NH2 [GnRH II antagonist] | increases |
